Several values for one entry are separate records, joined by “and”; a condition that tells them apart may be missing. Equal values may be shown once. Read-outs that look alike come from different tables or passages of the source.
What was measured:
[1] = Colorimetric alkylation rate constant assay with TNB^2− as non-specific thiol; format: physicochemical; set-up: second-order: unit not given here; conditions: [B]0 = 250, Replicates 1-3
[2] = Colorimetric alkylation rate constant assay with thiol N1; format: physicochemical
[3] = Competition assay: N1–E4 dimerization in the presence of competitors C1–6 (HPLC); format: physicochemical; conditions: equimolar E4, competitor and N1, 50 μM each
[4] = system: THP-1 Lucia ISG cells; assay: β-Glucuronidase-specific STING activation, cytokine secretion assays; format: cell-based, human; conditions: 25 μM each, with β-glucuronidase 250 units ml^−1, 24 h
Procedure: THP-1 Lucia ISG cells were maintained as described above. On the day of the experiment, cells were pelleted (150g, 10 min) and resuspended in the growth medium (40% conditioned) at a density of 1 × 10^6 cells ml^−1. […] The supernatants were collected, aliquoted and frozen at −20 °C for future analysis. […] Data were analysed by two-tailed Welch’s t-test (GraphPad Prism).

[5] = LC-MS analysis of the N1–E4 reaction in the presence of glutathione; format: physicochemical; conditions: 50 μM N1 + 50 μM E4, 1 mM glutathione, pH 7.0, 37 °C, 2 h
Procedure: Extended Data Fig. 5 LC-MS analysis of the reaction between N1 and E4 in the presence of glutathione (1 mM). N1 (50 μM) and E4 (50 μM) were reacted at neutral pH (25 mM HEPES pH 7.0, 150 mM NaCl) and in the presence of reduced glutathione (1 mM). The reaction mixture was incubated at 37 °C for 2 h. No glutathione-adduct of E4 was identified. TEXT PRINTED IN THE PICTURE: no label printed: exact mass: 340.04 | no label printed: exact mass: 618.05

[6] = target: E. coli β-glucuronidase (Escherichia coli, UniProt P05804); conditions: pH 6.8
[7] = system: CT26mβGUS tumours; conditions: mouse, in vivo
[8] = system: THP-1 cells; assay: Dilution limits of N1/E4 combination to activate THP-1 cells (IFN-β ELISA); conditions: IFN-β secretion, 6 h, single component
[9] = Stability test in human plasma; format: in vitro ADME; conditions: 48 h, 37 °C
Procedure: Extended Data Fig. 6 Stability test of β-GlcA-N1 (1 mM) in human plasma. At the indicated time point, an 80 µL aliquot was loaded onto an Agilent Bond Elut solid phase extraction column (C18, 3 mL bed volume). The collected eluent was lyophilized, redissolved in a 50% (v/v) acetonitrile in water (0.1% v/v formic acid), and analyzed by LC-MS. TEXT PRINTED IN THE PICTURE: β-GlcA-N1: integration value: 91206 (t = 0 hr, human plasma); integration value: 84431 (t = 48 hr, 37 °C, human plasma) | no label printed: exact mass: 502.06 | no label printed: exact mass: 309.02 DOUBTS OF THE COPYIST ABOUT THIS PICTURE: The name β-GlcA-N1 is printed only at the peak in the upper chromatogram. The lower chromatogram's integration value (84431) is assigned to it as the same peak. / The two drawn structures have no printed label. Their exact masses are given with an empty substance label.

[10] = target: T1, human β-glucuronidase (Homo sapiens, UniProt P08236); assay: Michaelis–Menten kinetics of β-GlcA-N1 cleavage; format: biochemical; conditions: for dilution-corrected deltaN1: replicates 1 and 2
T1 construct: purchased AcroBiosystems BEB-H52H3
T1 sequence (P08236 23-651): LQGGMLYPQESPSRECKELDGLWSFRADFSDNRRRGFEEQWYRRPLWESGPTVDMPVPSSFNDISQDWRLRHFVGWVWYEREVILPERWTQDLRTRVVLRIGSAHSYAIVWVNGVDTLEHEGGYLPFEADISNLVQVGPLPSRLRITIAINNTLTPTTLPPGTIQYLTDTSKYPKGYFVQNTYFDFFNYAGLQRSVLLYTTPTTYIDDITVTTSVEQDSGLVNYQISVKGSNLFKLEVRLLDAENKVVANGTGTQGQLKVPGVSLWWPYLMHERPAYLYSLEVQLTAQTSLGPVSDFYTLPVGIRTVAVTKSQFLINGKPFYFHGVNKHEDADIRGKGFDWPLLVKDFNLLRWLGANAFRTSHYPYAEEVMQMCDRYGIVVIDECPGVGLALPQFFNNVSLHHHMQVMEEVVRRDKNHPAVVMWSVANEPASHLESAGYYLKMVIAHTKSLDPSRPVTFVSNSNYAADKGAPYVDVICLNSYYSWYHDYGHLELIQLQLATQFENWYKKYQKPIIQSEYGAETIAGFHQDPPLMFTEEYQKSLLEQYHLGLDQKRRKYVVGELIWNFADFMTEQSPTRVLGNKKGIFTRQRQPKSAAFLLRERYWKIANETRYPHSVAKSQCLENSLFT
Procedure: Human β-glucuronidase (AcroBiosystems BEB-H52H3) was reconstituted in deionized water to a concentration of 1 mg ml^−1. The enzyme stock solution was further diluted in assay buffer (0.2 M acetate pH 4.5) to 10 μg ml^−1 (134 nM). β-GlcA-N1 (50 mM DMSO stock) was twofold serially diluted in assay buffer from 5 to 0.078 mM. The enzyme solution and diluted β-GlcA-N1 were incubated in a transparent 96-well plate and incubated at 37 °C until thermo equilibrium was reached. Then, 100 µl of β-GlcA-N1 at various concentrations was mixed with 100 µl of β-glucuronidase using a multichannel pipette, resulting in the following initial condition: [β-GlcA-N1] = 2.5, 1.25, 0.62, 0.31, 0.16, 0.08 and 0.04 mM; [β-glucuronidase] = 67 nM; 5% DMSO (v/v). The reactions were incubated at 37 °C. At 30-min and 60-min timepoints, a 50-µl portion was withdrawn from each reaction mixture and mixed with 50 µl of quenching buffer (1 M sodium carbonate, 1 mM TCEP). The concentration of liberated N1 was determined by comparing the absorbance of each quenched reaction at 410 nm to a calibration curve of purified N1. Reaction velocities were calculated from the slopes of [N1] versus time plots. The velocity versus [β-GlcA-N1] plot was then fitted with the standard Michaelis–Menten kinetic model (GraphPad Prism).

[11] = system: MC38 tumours; conditions: for Tumor Size: individual mice, * = excluded once a death was recorded in the group
[12] = system: CT26mβGUS tumours; assay: CT26mβGUS syngeneic mouse tumour model; conditions: single component alone

E. coli β-glucuronidase, sequence (P05804 whole entry): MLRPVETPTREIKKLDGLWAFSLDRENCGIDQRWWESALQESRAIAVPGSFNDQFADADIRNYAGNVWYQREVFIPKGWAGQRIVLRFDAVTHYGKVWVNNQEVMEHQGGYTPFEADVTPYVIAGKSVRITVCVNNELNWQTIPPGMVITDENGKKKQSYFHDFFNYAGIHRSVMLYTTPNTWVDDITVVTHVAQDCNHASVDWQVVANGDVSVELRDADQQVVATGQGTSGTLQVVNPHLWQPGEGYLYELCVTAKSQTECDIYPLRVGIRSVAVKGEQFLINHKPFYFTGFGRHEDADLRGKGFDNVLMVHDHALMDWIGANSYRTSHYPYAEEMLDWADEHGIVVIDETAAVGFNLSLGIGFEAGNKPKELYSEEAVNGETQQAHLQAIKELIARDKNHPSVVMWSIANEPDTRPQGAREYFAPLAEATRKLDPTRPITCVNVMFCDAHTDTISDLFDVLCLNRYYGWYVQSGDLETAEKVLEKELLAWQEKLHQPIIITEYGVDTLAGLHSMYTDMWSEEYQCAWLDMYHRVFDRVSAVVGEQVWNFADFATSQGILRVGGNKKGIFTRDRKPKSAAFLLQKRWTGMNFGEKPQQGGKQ

O=C(CCl)Nc1cc(C(F)(F)F)cc(C(F)(F)F)c1 [Compound C1]
second-order ([1]; Time 2891 sec): 0.0005428 and 0.0004879 and 0.0005765 | second-order ([1]; Time 3071 sec): 0.0005659 and 0.0004944 and 0.0005968 | second-order ([1]; Time 3252 sec): 0.0005928 and 0.000525 and 0.0006178 | second-order ([1]; Time 3433 sec): 0.0006132 and 0.0005166 and 0.0006465 | second-order ([1]; Time 3613 sec): 0.0006269 and 0.0005419 and 0.0006634 | second-order ([1]; Time 3794 sec): 0.0006518 and 0.0005802 and 0.0006849 | second-order ([1]; Time 3974 sec): 0.0006575 and 0.0005747 and 0.00069 | second-order ([1]; Time 4155 sec): 0.0006878 and 0.0006116 and 0.0007283 | second-order ([1]; Time 4336 sec): 0.0007043 and 0.0006446 and 0.000736 | second-order ([1]; Time 4516 sec): 0.0007158 and 0.0006546 and 0.0007684 | second-order ([1]; Time 4697 sec): 0.0007519 and 0.0006931 and 0.0007736 | second-order ([1]; Time 4878 sec): 0.0007648 and 0.000697 and 0.0008077 | second-order ([1]; Time 5058 sec): 0.000772 and 0.0007238 and 0.0008222 | second-order ([1]; Time 5239 sec): 0.0008041 and 0.000747 and 0.0008434 | second-order ([1]; Time 5419 sec): 0.0008239 and 0.0007489 and 0.0008675 | second-order ([1]; Time 5600 sec): 0.0008471 and 0.0007554 and 0.0008837 | second-order ([1]; Time 5781 sec): 0.0008692 and 0.0007775 and 0.0009026 | second-order ([1]; Time 5961 sec): 0.0008692 and 0.000805 and 0.0009333 | second-order ([2]; Replicate 1, time 576 sec, second-order plot value): 0.007537 | second-order ([2]; Replicate 1, time 606 sec, second-order plot value): 0.007697 | second-order ([2]; Replicate 2, time 576 sec, second-order plot value): 0.007533 | second-order ([2]; Replicate 2, time 606 sec, second-order plot value): 0.00792 | second-order ([2]; Replicate 3, time 576 sec, second-order plot value): 0.007357 | second-order ([2]; Replicate 3, time 606 sec, second-order plot value): 0.007639 | second-order ([2]; time 0 sec, replicates 1-3): 0.001153 and 0.001059 and 0.00116 | second-order ([2]; time 30 sec, replicates 1-3): 0.001608 and 0.001493 and 0.001543 | second-order ([2]; time 60 sec, replicates 1-3): 0.001966 and 0.001867 and 0.001909 | second-order ([2]; time 91 sec, replicates 1-3): 0.002342 and 0.002215 and 0.002258 | second-order ([2]; time 121 sec, replicates 1-3): 0.002679 and 0.002554 and 0.002612 | second-order ([2]; time 151 sec, replicates 1-3): 0.002904 and 0.002968 | second-order ([2]; time 212 sec, replicates 1-3): 0.003712 and 0.003583 and 0.003667 | second-order ([2]; time 242 sec, replicates 1-3): 0.004057 and 0.003913 and 0.004 | second-order ([2]; time 273 sec, replicates 1-3): 0.00439 and 0.004239 and 0.004347 | second-order ([2]; time 303 sec, replicates 1-3): 0.004715 and 0.004571 and 0.004691 | second-order ([2]; time 333 sec, replicates 1-3): 0.005043 and 0.004886 and 0.00503 | second-order ([2]; time 364 sec, replicates 1-3): 0.005369 and 0.005207 and 0.005358 | second-order ([2]; time 394 sec, replicates 1-3): 0.005645 and 0.005521 and 0.005712 | second-order ([2]; time 424 sec, replicates 1-3): 0.005918 and 0.005838 and 0.006051 | second-order ([2]; time 454 sec, replicates 1-3): 0.006191 and 0.006157 and 0.006365 | second-order ([2]; time 485 sec, replicates 1-3): 0.006532 and 0.006449 and 0.006705 | second-order ([2]; time 515 sec, replicates 1-3): 0.006798 and 0.006747 and 0.007019 | second-order ([2]; time 545 sec, replicates 1-3): 0.007139 and 0.00704 and 0.007306 | reduction of the amount of N1–E4 dimer by the competitor [3]: 35%

CCSc1cc2cc(C(=O)CCC(=O)O)sc2cc1OC [Compound E4-ctrl]
secretion of cytokines downstream of STING (interferon-β, CXCL-10, IL-6) [4]: diminished the cytokine inductions

COc1cc2sc(C(=O)CCC(=O)O)cc2cc1SCCCl [Compound E4]
glutathione adduct formation [5]: No glutathione–E4 adduct was detected | stability in phosphate buffer without added enzyme [6]: most E4 underwent hydrolysis | body weight [7]: no significant losses were observed | concentration up to which no STING activation was shown (alone) [8]: > 64 µM

COc1cc2sc(C(=O)CCC(=O)O)cc2cc1SCO[C@@H]1O[C@H](C(=O)O)[C@@H](O)[C@H](O)[C@H]1O [β-GlcA-N1]
fraction remaining intact in human plasma [9]: more than 90% | kcat ([10]; Vmax / enzyme (6.71141e-8 M)): 0.4762 | dilution-corrected deltaN1 ([10]; substrate conc. 0.0390625 mM): 4.272e-06 mM/s and 3.586e-06 mM/s | dilution-corrected deltaN1 ([10]; substrate conc. 0.078125 mM): 6.962e-06 mM/s and 7.225e-06 mM/s | dilution-corrected deltaN1 ([10]; substrate conc. 0.15625 mM): 1.1761e-05 mM/s and 1.16e-05 mM/s | dilution-corrected deltaN1 ([10]; substrate conc. 0.3125 mM): 1.598e-05 mM/s and 1.529e-05 mM/s | dilution-corrected deltaN1 ([10]; substrate conc. 0.625 mM): 2.231e-05 mM/s and 1.587e-05 mM/s | dilution-corrected deltaN1 ([10]; substrate conc. 1.25 mM): 2.547e-05 mM/s and 2.51e-05 mM/s | dilution-corrected deltaN1 ([10]; substrate conc. 2.5 mM): 3.022e-05 mM/s and 2.88e-05 mM/s | stability in phosphate buffer without added enzyme [6]: remained stable | Tumor Size ([11]; day 23): 113* mm^3 and 189.9* mm^3 | Tumor Size ([11]; day 25): 125.8124* mm^3 and 301.5* mm^3 | Tumor Size ([11]; day 30): 445.0408* mm^3 and 632.5* mm^3 | Tumor Size ([11]; day 33): 1167* mm^3 and 1562* mm^3 | Survival: Days ([11]; mouse, in vivo): 17 days and 33 days and 21 days | Survival: death event (1 denotes a death event) ([11]; mouse, in vivo): 1 | body weight [12]: no significant losses were observed
